Assay results reported in patent US20020103105A1, “Use of selective dopamine D4 receptor agonists for treating sexual dysfunction” (priority 2000, published 2002).
Values joined by “and” are separate entries in the source; they are usually repeats but may differ in a detail not shown here. Equal values may be shown once. Read-outs that look alike come from different tables or passages of the source.

Key:
[1] = biological target: T1, human D4 receptor (Homo sapiens, UniProt P21917); assay: FLIPR calcium assay in HEK293 cells expressing human D4 receptor co-transfected with Gqo5 chimera; assay type: cell-based; parameters: expressed in transfected cells; host or cells: HEK293 cells, stably transfected, with Gqo5 chimera
T1 sequence (P21917 1-419): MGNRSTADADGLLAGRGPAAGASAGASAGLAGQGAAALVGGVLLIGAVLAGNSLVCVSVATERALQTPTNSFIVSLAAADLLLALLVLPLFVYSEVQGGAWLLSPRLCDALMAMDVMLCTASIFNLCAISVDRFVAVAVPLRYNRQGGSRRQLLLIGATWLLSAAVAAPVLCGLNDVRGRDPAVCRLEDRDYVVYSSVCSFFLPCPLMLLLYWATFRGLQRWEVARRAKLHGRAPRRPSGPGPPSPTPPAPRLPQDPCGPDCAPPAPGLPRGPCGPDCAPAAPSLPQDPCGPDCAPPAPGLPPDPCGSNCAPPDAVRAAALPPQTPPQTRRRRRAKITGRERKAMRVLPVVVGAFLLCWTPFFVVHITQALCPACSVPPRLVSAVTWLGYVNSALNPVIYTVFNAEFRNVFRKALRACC
Experimental: The FLIPR assay is a functional assay that can be conducted in HEK293 cells expressing the human D4 receptor, co-transfected with the Gqo5 protein chimera. Expression of the G-protein chimera allows for the mobilization of intracellular calcium after activation of the D4 receptor. Cells are prepared by plating the stably transfected D4-HEK293 cells into each well of 96 well plates. Cells are cultured until they reach confluence (approximately 48 hours). Media is removed from the plate and media containing the fluorescent calcium detecting dye Fluo-4 is added. Cells are incubated at room temperature for one hour. Cells are then washed three times with phosphate buffered saline and 150 μl PBS is added. Compounds to be tested are diluted in a second 96-well plate. The plate containing the cells is placed in fluorescent plate reader (FLIPR) and the reaction is begun by adding 50 μl of compound solution to all the wells simultaneously. Fluorescent signal is measured for 60 seconds sampling at 1 second intervals. The signal derived from 10 μM dopamine is used as 100% and a compound dose-response curve is normalized to determine the percent efficacy relative to dopamine. Dose response curves are analyzed to determine EC50 (nM).

[2] = test system: penile erection in Wistar rats; assay: Rat penile erection model; assay type: in vivo; details: subcutaneous; for Incidence (%) of penile erections: 60 minutes observation; for facilitation of penile erections in rats (in words, with effective dose range): versus vehicle
Experimental: Wistar rats were used as a primary animal model to study penile erection in vivo. All experiments were carried out between 9:00 AM and 3:00 PM in a diffusely illuminated testing room with a red light. The rats were weighed and allowed to adapt to the testing room for 60 minutes before the beginning of experiments. Rats were placed in individual transparent cages (20×30×30 cm) after subcutaneous drug injection. The number of penile erections was recorded by direct observation for a period of 60 minutes after drug dosing.

[3] = test system: emesis in male Fitch ferrets; assay: Emesis model in ferrets; assay type: in vivo; details: ferret, subcutaneous; for Incidence (%) of emesis: 90 minutes observation; for induction of emesis (in words): all doses tested
Experimental: Male Fitch ferrets (body weights 1.0-1.5 kg) were fasted overnight before experimentation. Animals were placed individually in observation cages following subcutaneous administration of drug and observed for drug-induced nausea and emesis for a period of 90 minutes following drug injection. Nausea was characterized by behaviors such as licking, gagging, backing, head burying, and intense abdominal grooming. Emesis was usually preceded by these behaviors and was characterized by rhythmic abdominal contractions which were associated with vomiting or retching movement. The number of ferrets induced to emesis was recorded and expressed as incidence (%) in Tables 5-7.

[4] = biological target: T1, human D4 receptor; parameters: expressed in transfected cells; details: CHO cells, read-out: EC50 inhibition of forskolin-stimulated cAMP accumulation; cited from earlier work
[5] = biological target: T2, dopamine D4 receptor (Homo sapiens, UniProt P21917); details: cited literature; cited from earlier work
T2 sequence (P21917 1-419): T1 sequence (P21917 1-419)

[6] = biological target: T3, dopamine D2 receptor (Homo sapiens, UniProt P14416); assay: Dopamine D2 binding assay ([3H]-spiperone, membranes of transfected A9L cells, run by Cerep); details: recombinant human D2, [3H]-spiperone 0.3 nM
T3 construct: host or cells: A9L cells (membranes)
Experimental: (§1) The dopamine D2 and D4 binding assays, used to determine binding affinities (Ki) illustrated in Table 1, were conducted according to standard procedures known to those in the art and are summarized herein.
(§2) Briefly, receptor binding assays at the dopamine D2 and D4 receptors were carried out in membranes from cell lines expressing the recombinant human subtypes. […] Specific binding was defined as the difference between total binding and nonspecific binding. Ki values were determined using the Cheng-Prusoff equation and are illustrated in Table 1.

[7] = biological target: T2, dopamine D4 receptor; assay: Dopamine D4 binding assay ([3H]-spiperone, membranes of transfected CHO cells, run by Cerep); parameters: host or cells: CHO cells (membranes); details: recombinant human D4, [3H]-spiperone 0.5 nM
Experimental: as §1, §2

T3 sequence (P14416 whole entry): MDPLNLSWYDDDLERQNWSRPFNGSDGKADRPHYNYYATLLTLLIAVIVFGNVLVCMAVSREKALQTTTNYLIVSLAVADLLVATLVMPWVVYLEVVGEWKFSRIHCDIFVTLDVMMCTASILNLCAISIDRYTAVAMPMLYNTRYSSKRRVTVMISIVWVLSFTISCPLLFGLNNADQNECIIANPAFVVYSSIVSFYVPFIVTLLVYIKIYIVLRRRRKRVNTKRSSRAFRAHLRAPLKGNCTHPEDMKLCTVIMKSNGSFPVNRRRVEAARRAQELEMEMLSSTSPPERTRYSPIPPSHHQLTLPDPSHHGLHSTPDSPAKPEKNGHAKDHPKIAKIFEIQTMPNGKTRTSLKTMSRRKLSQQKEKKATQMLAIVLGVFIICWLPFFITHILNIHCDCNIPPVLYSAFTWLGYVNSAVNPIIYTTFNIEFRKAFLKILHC

SMILES | Incidence (%) of penile erections ([2]; 0.3 μmol/kg) | Incidence (%) of penile erections ([2]; 1.0 μmol/kg) | facilitation of penile erections in rats (in words, with effective dose range) [2] | Incidence (%) of emesis ([3]; 0.1 μmol/kg) | Incidence (%) of emesis ([3]; 0.3 μmol/kg) | Incidence (%) of emesis ([3]; 1.0 μmol/kg) | Incidence (%) of emesis ([3]; 3.0 μmol/kg) | induction of emesis (in words) [3] | Ki [6] | Incidence (%) of penile erections ([2]; 0.03 μmol/kg) | Incidence (%) of penile erections ([2]; 0.1 μmol/kg) | other results
Fc1ccc2[nH]c(CN3CCN(c4ccccn4)CC3)cc2c1 [5-fluoro-2-{[4-(2-pyridinyl)-1-piperazinyl]methyl}-1H-indole] | 60% | 90% | significant facilitation of penile erections in rats for doses 1.0 μmol/kg and 3.0 μmol/kg | 0% | 0% | 0% | 0% | did not induce emesis at any dose | > 1000 nM | – | – | EC50 ([1]; D4-HEK293 cells, Gqo5): 32 nM; Emax ([1]; HEK293, relative to 10 μM dopamine = 100%, read-out: Maximum Response FLIPR): 46%; agonism at D4 receptor in FLIPR assay (in words) ([1]; Table A data): agonists; Incidence (%) of penile erections ([2]; 3.0 μmol/kg): 90%; EC50 [4]: 5.8 nM; Ki [5]: 6 nM; selectivity for dopamine D4 receptor compared to D2 receptor (literature) [5]: > 100 fold; Ki [7]: 2.6 nM
CN1CCc2cccc3c2C1Cc1ccc(O)c(O)c1-3 (stereo not shown) [Apomorphine, 5,6,6a,7-tetrahydro-6-methyl-4H-dibenzo[de,g]quinoline-10,11-diol] | 66% | 25% | significant facilitation of penile erections in rats for doses 0.01 μmol/kg to 0.3 μmol/kg | 32% | 83% and 82% | 48% | 32% | induced emesis at all doses | – | 69% | 86% and 90% and 92% | Incidence (%) of penile erections ([2]; 0.003 μmol/kg): 28%; Incidence (%) of penile erections ([2]; 0.01 μmol/kg): 56%; Incidence (%) of penile erections ([2]; 0.1 μmol/kg, listed as apomorphine): 86% and 90%; Incidence (%) of emesis ([3]; 0.3 μmol/kg, listed as apomorphine): 83%; Incidence (%) of emesis ([3]; 10.0 μmol/kg): 32%
Cc1cccc(C(=O)NCN2CCN(c3ccccc3C#N)CC2)c1 [N-{[4-(2-cyanophenyl)-1-piperazinyl]methyl}-3-methylbenzamide] | 79% | 68% | significant facilitation of penile erections in rats for doses 0.1 μmol/kg to 1.0 μmol/kg | 0% | 0% | 0% | 0% | did not induce emesis at any dose | > 1000 nM | 42% | 71% | –
